The target of assay [1] is T1, Tyrosinase (Agaricus bisporus, UniProt O42713).
T1 sequence (O42713 whole entry): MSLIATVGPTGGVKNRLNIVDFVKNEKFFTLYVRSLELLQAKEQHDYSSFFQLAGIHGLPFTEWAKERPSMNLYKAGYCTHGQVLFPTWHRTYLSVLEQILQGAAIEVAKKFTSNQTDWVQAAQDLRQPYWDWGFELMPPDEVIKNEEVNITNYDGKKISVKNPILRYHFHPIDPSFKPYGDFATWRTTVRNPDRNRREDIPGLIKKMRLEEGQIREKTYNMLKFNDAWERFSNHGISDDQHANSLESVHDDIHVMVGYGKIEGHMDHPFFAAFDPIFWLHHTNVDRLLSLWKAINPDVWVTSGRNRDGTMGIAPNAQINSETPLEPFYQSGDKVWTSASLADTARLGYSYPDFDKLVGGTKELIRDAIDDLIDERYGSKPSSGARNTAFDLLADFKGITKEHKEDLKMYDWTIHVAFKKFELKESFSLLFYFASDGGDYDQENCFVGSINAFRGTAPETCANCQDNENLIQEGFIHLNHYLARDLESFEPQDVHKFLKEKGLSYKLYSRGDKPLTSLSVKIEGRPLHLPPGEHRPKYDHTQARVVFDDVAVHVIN
Description: Inhibition of mushroom tyrosinase after 20 mins by microplate reader analysis

Assay [2] concerns RAW264.7. Briefly: cells. The conditions noted are these: Mus musculus.
Description: Antiinflammatory activity in mouse RAW264.7 cells assessed as inhibition of LPS-induced nitric oxide production treated for 30 mins before LPS challenge measured after 24 hrs by Griess reagent method
Assay [3] has as its system RAW264.7. The assay can be described thus: cells. The settings on record: Mus musculus, RAW264.7, 24 h.
Description: Cytotoxicity against mouse RAW264.7 cells after 24 hrs by MTT assay

Bounds are passed on as bounds.

In the case of `CCSCc1cc(=O)c(O)co1`, the results for the IC50 in assay [1], in assay [2] and in assay [3] were 2.6 µM, greater than 100 µM and greater than 100 µM, respectively.
As to `CCCSCc1cc(=O)c(O)co1`, the figures for the IC50 in assay [1], in assay [2] and in assay [3] were 1.93 µM, greater than 100 µM and greater than 100 µM, respectively.
As for `CCCCSCc1cc(=O)c(O)co1`, the figures for the IC50 in assay [1], in assay [2] and in assay [3] were 1.48 µM, greater than 100 µM and greater than 100 µM, respectively.
Take `CCCCCSCc1cc(=O)c(O)co1`: the IC50 in assay [1] was 0.097 µM; in assay [2], 62 µM; in assay [3] it was greater than 100 µM.
The matching figures for `CCCCCCSCc1cc(=O)c(O)co1`: 0.19 µM, 25.8 µM and greater than 100 µM.
The matching figures for `CCCCCCCSCc1cc(=O)c(O)co1`: 2.65 µM, greater than 100 µM and 98.3 µM.
The matching figures for `CCCCCCCCSCc1cc(=O)c(O)co1`: 46.2 µM, greater than 100 µM and greater than 100 µM.
In the case of `O=c1cc(CSC2CCCCC2)occ1O`, the IC50 is 0.087 µM in assay [1], 56.9 µM in assay [2] and greater than 100 µM in assay [3].
`CCCCC[S+]([O-])Cc1cc(=O)c(O)co1` (configuration not stated): the half-maximal inhibitory concentration (IC50) is 79.9 µM in assay [1], greater than 100 µM in assay [2] and greater than 100 µM in assay [3].
For the molecule `CCCCCC[S+]([O-])Cc1cc(=O)c(O)co1` (configuration not stated), the results for the IC50 in assay [1], in assay [2] and in assay [3] were 73.8 µM, greater than 100 µM and greater than 100 µM, respectively.
`O=c1cc(C[S+]([O-])C2CCCCC2)occ1O` (configuration not stated): the IC50 was 79 µM in assay [1], greater than 100 µM in assay [2] and greater than 100 µM in assay [3].
As for `CCCCCS(=O)(=O)Cc1cc(=O)c(O)co1`, the IC50 in assay [1] is 76.6 µM; in assay [2], greater than 100 µM; in assay [3] it was greater than 100 µM.
Turning to `CCCCCCS(=O)(=O)Cc1cc(=O)c(O)co1`, the IC50 in assay [1] is 49.1 µM; in assay [2] it was greater than 100 µM; in assay [3], greater than 100 µM.
In the case of `O=c1cc(CS(=O)(=O)C2CCCCC2)occ1O`, the IC50 is 69 µM in assay [1], greater than 100 µM in assay [2] and greater than 100 µM in assay [3].

Source of the values: ChEMBL document CHEMBL1268992, “Kojyl thioether derivatives having both tyrosinase inhibitory and anti-inflammatory properties” (Bioorg Med Chem Lett, 2010).
